# Test results taken from patent US10072023B2, “Diarylethene compounds and uses thereof” (SWITCH MATERIALS, INC., priority 2011, dated 2018).
# Tests used:
# Type in all cases: physicochemical
# [1] = Absorbance at photostationary state (PSS) under simulated sunlight or 365 nm light; set-up: λ max: unit not given here; settings: for Absorbance at PSS, 365 nm: 365 nm light source; for Absorbance at PSS, 365 nm / Absorbance at PSS, full / Absorbance at PSS, +UV / λ max: 2.0×10^−5 M in triglyme; for sensitivity index: ratio of PSS under 365 nm light to PSS under full spectrum light (without UV blocking film); for Absorbance at PSS, full: simulated sunlight (QSUN solar simulator), no UV blocking film; for Absorbance at PSS, +UV: simulated sunlight with UV blocking film (cutoff 370 nm); for λ max: wavelength of maximum absorbance in the visible range, ring-closed isoform
# Outline: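 Compounds at 2.0×10^−5 M in triglyme, photofaded with visible light, then irradiated with simulated sunlight (xenon arc) or 365 nm light until the UV/Vis spectrum stabilized. Also irradiated through a UV-blocking film (370 nm cutoff); sensitivity index is PSS under 365 nm divided by PSS under full spectrum.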
# [2] = Solubility in indicated solvent; settings: % wt soluble in triglyme
# Source text: A compound with greater solubility allows for a formulation or material with a greater concentration of coloured molecule to be incorporated into a composition. This may allow for increasing the contrast ratio for a compound with a lesser absorbance at PSS. Inclusion of a solubilizing group in a compound according to various embodiments of the invention may increase solubility. Examples of solubilizing groups may include alkoxy or siloxy groups.
# [3] = PSS and light composition (sunlight vs interior lighting); settings: 2×10^−4 M in triglyme
# Source text: The difference in PSS as a function of light source type was investigated. The light sources included direct sunlight (filtered through window glass) and interior lighting. Irradiance information and spectral profiles of light sources are provided in Table 9 and FIG. 2, respectively. Six compounds (2×10^−4 M solutions of S096, S094, S079, S044, S042 and S035 in triglyme) were investigated and compared for performance on the basis of maximum difference in darkening ability between sunlight and interior lighting conditions. Darkening ability is indicated by the absorbance at λmax in the visible light spectrum for the ring-closed isomer of the chromophore.
# Samples were then moved away from the window (300 cm from window, with interior lighting on) to alter the light composition by reducing the sunlight component. […] Finally, samples were again irradiated to the darkest state under sunlight conditions (20 cm from window) and then subjected to interior lighting conditions only (sunlight blocked out with blinds), allowing the samples to fade to a lower PSS specific to these lighting conditions as shown in FIG. 3.
# Sample darkening times were less than one minute, while sample photofading times ranged as high as 20 minutes. […]
compound,measurement,setting,value
"COc1ccc(-c2cc(C3=C(c4cc(-c5ccc(OC)cc5)sc4-c4ccc(OC)cc4)C(F)(F)C(F)(F)C3(F)F)c(-c3ccc(OC)cc3)s2)cc1 [S054, 3,3′-(perfluorocyclopent-1-ene-1,2-diyl)bis(2,5-bis(4-methoxyphenyl)thiophene)]","Absorbance at PSS, 365 nm",[1],0.268
same,sensitivity index,[1],2.53
same,"Absorbance at PSS, full",[1],0.106
same,"Absorbance at PSS, +UV",[1],0.056
same,λ max,[1],630
same,Solubility,[2],5-6 % wt
"CCOCCOCCOCCOc1ccc(-c2sc(-c3ccc(C(C)(C)C)s3)cc2C2=C(c3cc(-c4ccc(C(C)(C)C)s4)sc3-c3ccc(OCCOCCOCCOCC)cc3)C(F)(F)C(F)(F)C2(F)F)cc1 [S109, 4,4″-(perfluorocyclopent-1-ene-1,2-diyl)bis(5′-(tert-butyl)-5-(4-(2-(2-(2-ethoxyethoxy)ethoxy)ethoxy)phenyl)-2,2′-bithiophene)]","Absorbance at PSS, 365 nm",[1],0.367
same,sensitivity index,[1],1.24
same,"Absorbance at PSS, full",[1],0.296
same,"Absorbance at PSS, +UV",[1],0.217
same,λ max,[1],645
same,Solubility,[2],>25 % wt
"Cc1cc(-c2sc(C)c(C)c2C2=C(c3c(-c4cc(C)c(C)s4)sc(C)c3C)C(F)(F)C(F)(F)C2(F)F)sc1C [S039, 3,3′-(perfluorocyclopent-1-ene-1,2-diyl)bis(4,4′,5,5′-tetramethyl-2,2′-bithiophene)]","Absorbance at PSS, 365 nm",[1],0.372
same,sensitivity index,[1],7.75
same,"Absorbance at PSS, full",[1],0.048
same,"Absorbance at PSS, +UV",[1],0.028
same,λ max,[1],570
same,Solubility,[2],2 % wt
"CCCCCCCCc1ccc(-c2oc3ccccc3c2C2=C(c3c(-c4ccc(CCCCCCCC)cc4)oc4ccccc34)C(F)(F)C(F)(F)C2(F)F)cc1 [S079, 1,2-bis(2-(4-n-octylphenyl)-1-benzofuran-3-yl)perfluorocyclopentene]","Absorbance at PSS, 365 nm",[1],0.17
same,sensitivity index,[1],7.39
same,"Absorbance at PSS, full",[1],0.023
same,"Absorbance at PSS, +UV",[1],0.008
same,λ max,[1],490
same,Solubility,[2],8-11 % wt
"CC(C)(C)c1ccc(-c2sc(-c3ccccc3)cc2C2=C(c3cc(-c4ccccc4)sc3-c3ccc(C(C)(C)C)cc3)C(F)(F)C(F)(F)C2(F)F)cc1 [S057, 3,3′-(perfluorocyclopent-1-ene-1,2-diyl)bis(2-(4-tert-butylphenyl)-5-phenylthiophene)]","Absorbance at PSS, 365 nm",[1],0.204
same,sensitivity index,[1],2.58
same,"Absorbance at PSS, full",[1],0.079
same,"Absorbance at PSS, +UV",[1],0.033
same,λ max,[1],610
same,Solubility,[2],1.5 % wt
COCCOCCOCCOc1ccc(-c2sc(-c3ccc(C(C)(C)C)s3)cc2C2=C(c3cc(-c4ccc(C(C)(C)C)s4)sc3-c3ccc(OCCOCCOCCOC)cc3)C(F)(F)C(F)(F)C2(F)F)cc1 [S108],"Absorbance at PSS, 365 nm",[1],0.374
same,sensitivity index,[1],1.28
same,"Absorbance at PSS, full",[1],0.292
same,"Absorbance at PSS, +UV",[1],0.215
same,λ max,[1],645
same,Solubility,[2],>25 % wt
CC(C)(C)c1ccc(-c2sc(-c3ccc(Cl)cc3)cc2C2=C(c3cc(-c4ccc(Cl)cc4)sc3-c3ccc(C(C)(C)C)cc3)C(F)(F)C(F)(F)C2(F)F)cc1 [S060],"Absorbance at PSS, 365 nm",[1],0.22
same,sensitivity index,[1],2.06
same,"Absorbance at PSS, full",[1],0.107
same,"Absorbance at PSS, +UV",[1],0.038
same,λ max,[1],615
same,Solubility,[2],1 % wt
"FC(F)(F)c1ccc(-c2cc(C3=C(c4cc(-c5ccc(C(F)(F)F)cc5)sc4-c4ccc(C(F)(F)F)cc4)C(F)(F)C(F)(F)C3(F)F)c(-c3ccc(C(F)(F)F)cc3)s2)cc1 [S044, 3,3′-(perfluorocyclopent-1-ene-1,2-diyl)bis(2,5-bis(4-(trifluoromethyl)phenyl)thiophene)]","Absorbance at PSS, 365 nm",[1],0.222
same,sensitivity index,[1],3.58
same,"Absorbance at PSS, full",[1],0.062
same,"Absorbance at PSS, +UV",[1],0.027
same,λ max,[1],605
same,Solubility,[2],1 % wt
"CC(C)CCOc1ccc(-c2cc(C3=C(c4cc(-c5ccc(OCCC(C)C)cc5)sc4-c4ccc(OCCC(C)C)cc4)C(F)(F)C(F)(F)C3(F)F)c(-c3ccc(OCCC(C)C)cc3)s2)cc1 [S094, 3,3′-(perfluorocyclopent-1-ene-1,2-diyl)bis(2,5-bis(4-(isopentyloxy)phenyl)thiophene)]","Absorbance at PSS, 365 nm",[1],0.311
same,sensitivity index,[1],1.74
same,"Absorbance at PSS, full",[1],0.179
same,"Absorbance at PSS, +UV",[1],0.103
same,λ max,[1],625
same,change in degree of coloration in response to variation in the light source,[3],greatest change in degree of coloration
"CC(C)(C)c1ccc(-c2sc(-c3ccc(C4(C)OCCO4)cc3)cc2C2=C(c3cc(-c4ccc(C5(C)OCCO5)cc4)sc3-c3ccc(C(C)(C)C)cc3)C(F)(F)C(F)(F)C2(F)F)cc1 [S066, 2,2′-((4,4′-(perfluorocyclopent-1-ene-1,2-diyl)bis(5-(4-(tert-butyl)phenyl)thiophene-4,2-diyl))bis(4,1-phenylene))bis(2-methyl-1,3-dioxolane)]","Absorbance at PSS, 365 nm",[1],0.226
same,sensitivity index,[1],2.28
same,"Absorbance at PSS, full",[1],0.099
same,"Absorbance at PSS, +UV",[1],0.049
same,λ max,[1],615
same,Solubility,[2],2.5 % wt
"c1ccc(-c2nc(-c3nc(-c4ccccc4)sc3-c3nc(-c4ccccc4)sc3-c3ccccc3)c(-c3ccccc3)s2)cc1 [S032, 2,2′,2″,5,5″-pentaphenyl-4,4′:5′,4″-terthiazole]","Absorbance at PSS, 365 nm",[1],0.594
same,sensitivity index,[1],18.56
same,"Absorbance at PSS, full",[1],0.032
same,"Absorbance at PSS, +UV",[1],0.008
same,λ max,[1],600
same,Solubility,[2],1 % wt
CC(C)(C)c1ccc(-c2cc(C3=C(c4cc(-c5ccc(C(C)(C)C)cc5)sc4-c4ccc(C(C)(C)C)cc4)C(F)(F)C(F)(F)C3(F)F)c(-c3ccc(C(C)(C)C)cc3)s2)cc1 [S042],"Absorbance at PSS, 365 nm",[1],0.233
same,sensitivity index,[1],2.40
same,"Absorbance at PSS, full",[1],0.097
same,"Absorbance at PSS, +UV",[1],0.04
same,λ max,[1],612
same,Solubility,[2],0.5 % wt
same,change in degree of coloration in response to variation in the light source,[3],greatest change in degree of coloration
